Assay results: the NIST ThermoML archive (doi:10.1021/je200811n)

Settings: Hot wire method

C=C(F)C(F)(F)F [2,3,3,3-tetrafluoro-1-propene]
Settings	thermal conductivity [W/m/K]
272.85 K, 247 kPa, Gas	0.01156
272.89 K, 200 kPa, Gas	0.01156
272.97 K, 145 kPa, Gas	0.0116
273.04 K, 106 kPa, Gas	0.01162
273.14 K, 261 kPa, Gas	0.01159
273.17 K, 273 kPa, Gas	0.01162
273.19 K, 247 kPa, Gas	0.01159
273.26 K, 200 kPa, Gas	0.0116
273.35 K, 144 kPa, Gas	0.01162
273.44 K, 105 kPa, Gas	0.01163
273.46 K, 258 kPa, Gas	0.01159
273.55 K, 274 kPa, Gas	0.01163
273.58 K, 248 kPa, Gas	0.01163
273.64 K, 200 kPa, Gas	0.0116
273.76 K, 142 kPa, Gas	0.01165
273.82 K, 255 kPa, Gas	0.01165
273.87 K, 104 kPa, Gas	0.01165
274.2 K, 253 kPa, Gas	0.01169
281.36 K, 838 kPa, Liquid	0.06988
281.38 K, 860 kPa, Liquid	0.06977
281.41 K, 5779 kPa, Liquid	0.07285
281.44 K, 10941 kPa, Liquid	0.07602
281.46 K, 841 kPa, Liquid	0.06981
281.48 K, 862 kPa, Liquid	0.06968
281.51 K, 5779 kPa, Liquid	0.07276
281.54 K, 10939 kPa, Liquid	0.07609
281.66 K, 86 kPa, Gas	0.01256
281.66 K, 204 kPa, Gas	0.01278
281.79 K, 859 kPa, Liquid	0.06833
281.83 K, 10935 kPa, Liquid	0.07514
281.88 K, 202 kPa, Gas	0.01259
281.89 K, 87 kPa, Gas	0.01239
281.89 K, 843 kPa, Liquid	0.06853
281.93 K, 861 kPa, Liquid	0.06844
281.93 K, 5767 kPa, Liquid	0.07189
281.94 K, 10934 kPa, Liquid	0.07471
281.98 K, 15950 kPa, Liquid	0.07767
282.01 K, 15964 kPa, Liquid	0.07708
282.11 K, 200 kPa, Gas	0.0125
282.13 K, 88 kPa, Gas	0.01231
282.23 K, 841 kPa, Liquid	0.06878
282.25 K, 20590 kPa, Liquid	0.0797
282.26 K, 866 kPa, Liquid	0.06872
282.26 K, 5764 kPa, Liquid	0.07204
282.26 K, 10935 kPa, Liquid	0.07477
282.27 K, 15954 kPa, Liquid	0.07706
282.31 K, 15965 kPa, Liquid	0.0773
282.35 K, 198 kPa, Gas	0.01243
282.38 K, 90 kPa, Gas	0.01224
282.4 K, 841 kPa, Liquid	0.06858
282.4 K, 5763 kPa, Liquid	0.07193
282.4 K, 10935 kPa, Liquid	0.07479
282.41 K, 864 kPa, Liquid	0.0687
282.41 K, 15954 kPa, Liquid	0.07738
282.44 K, 15967 kPa, Liquid	0.07756
282.56 K, 395 kPa, Gas	0.01244
282.61 K, 196 kPa, Gas	0.01241
282.61 K, 308 kPa, Gas	0.01242
282.64 K, 91 kPa, Gas	0.01218
282.66 K, 20587 kPa, Liquid	0.07986
282.71 K, 204 kPa, Gas	0.0124
282.74 K, 5763 kPa, Liquid	0.07185
282.74 K, 10939 kPa, Liquid	0.07487
282.74 K, 15951 kPa, Liquid	0.07763
282.75 K, 834 kPa, Liquid	0.06855
282.77 K, 860 kPa, Liquid	0.06866
282.77 K, 15964 kPa, Liquid	0.07774
282.81 K, 20585 kPa, Liquid	0.07986
282.87 K, 396 kPa, Gas	0.01251
282.89 K, 10938 kPa, Liquid	0.07473
282.9 K, 15949 kPa, Liquid	0.07751
282.92 K, 87 kPa, Gas	0.01242
282.92 K, 5765 kPa, Liquid	0.07169
282.93 K, 832 kPa, Liquid	0.06832
282.93 K, 15964 kPa, Liquid	0.07755
282.94 K, 309 kPa, Gas	0.01248
282.96 K, 859 kPa, Liquid	0.06843
283.07 K, 203 kPa, Gas	0.01237
283.22 K, 396 kPa, Gas	0.01252
283.24 K, 15950 kPa, Liquid	0.07752
283.25 K, 10936 kPa, Liquid	0.07481
283.26 K, 15963 kPa, Liquid	0.07747
283.26 K, 20587 kPa, Liquid	0.07981
283.28 K, 5763 kPa, Liquid	0.07184
283.3 K, 309 kPa, Gas	0.01244
283.3 K, 832 kPa, Liquid	0.06845
283.33 K, 86 kPa, Gas	0.01249
283.33 K, 857 kPa, Liquid	0.0685
283.43 K, 15951 kPa, Liquid	0.07738
283.45 K, 10934 kPa, Liquid	0.07455
283.45 K, 20590 kPa, Liquid	0.07959
283.46 K, 201 kPa, Gas	0.01238
283.46 K, 15962 kPa, Liquid	0.07733
283.49 K, 5765 kPa, Liquid	0.07154
283.53 K, 830 kPa, Liquid	0.06815
283.56 K, 855 kPa, Liquid	0.06813
283.59 K, 396 kPa, Gas	0.01244
283.69 K, 309 kPa, Gas	0.01251
283.75 K, 88 kPa, Gas	0.0125
283.88 K, 199 kPa, Gas	0.01243
283.93 K, 20590 kPa, Liquid	0.07977
283.98 K, 395 kPa, Gas	0.01256
284.1 K, 309 kPa, Gas	0.01245
284.15 K, 20592 kPa, Liquid	0.07943
284.2 K, 89 kPa, Gas	0.01254
284.31 K, 197 kPa, Gas	0.01245
284.67 K, 91 kPa, Gas	0.01256
291.15 K, 109 kPa, Gas	0.01341
291.17 K, 246 kPa, Gas	0.01364
291.37 K, 109 kPa, Gas	0.01324
291.37 K, 244 kPa, Gas	0.01349
291.59 K, 242 kPa, Gas	0.01339
291.6 K, 109 kPa, Gas	0.01311
291.83 K, 240 kPa, Gas	0.01331
291.85 K, 109 kPa, Gas	0.01303
292.07 K, 238 kPa, Gas	0.01328
292.07 K, 432 kPa, Gas	0.01333
292.1 K, 109 kPa, Gas	0.01299
292.1 K, 342 kPa, Gas	0.01323
292.36 K, 109 kPa, Gas	0.0132
292.39 K, 429 kPa, Gas	0.01328
292.43 K, 342 kPa, Gas	0.01327
292.51 K, 245 kPa, Gas	0.01312
292.67 K, 538 kPa, Gas	0.01326
292.73 K, 428 kPa, Gas	0.01333
292.74 K, 109 kPa, Gas	0.01324
292.78 K, 343 kPa, Gas	0.01325
292.88 K, 243 kPa, Gas	0.01315
293.03 K, 536 kPa, Gas	0.01339
293.08 K, 428 kPa, Gas	0.01323
293.14 K, 109 kPa, Gas	0.01331
293.15 K, 343 kPa, Gas	0.01331
293.28 K, 241 kPa, Gas	0.01321
293.38 K, 532 kPa, Gas	0.01333
293.46 K, 428 kPa, Gas	0.01337
293.55 K, 343 kPa, Gas	0.01331
293.57 K, 109 kPa, Gas	0.01327
293.7 K, 239 kPa, Gas	0.01323
294.03 K, 109 kPa, Gas	0.01333
301.39 K, 199 kPa, Gas	0.01436
301.41 K, 95 kPa, Gas	0.01419
301.62 K, 199 kPa, Gas	0.0142
301.64 K, 95 kPa, Gas	0.01403
301.86 K, 199 kPa, Gas	0.0141
301.88 K, 95 kPa, Gas	0.01395
301.95 K, 868 kPa, Liquid	0.06212
301.98 K, 5731 kPa, Liquid	0.06593
302.03 K, 10752 kPa, Liquid	0.06904
302.06 K, 867 kPa, Liquid	0.06223
302.08 K, 16026 kPa, Liquid	0.07261
302.09 K, 5728 kPa, Liquid	0.0658
302.11 K, 199 kPa, Gas	0.01401
302.13 K, 10752 kPa, Liquid	0.06936
302.14 K, 95 kPa, Gas	0.01385
302.16 K, 648 kPa, Gas	0.0142
302.18 K, 16021 kPa, Liquid	0.0724
302.26 K, 510 kPa, Gas	0.01411
302.37 K, 199 kPa, Gas	0.01396
302.38 K, 350 kPa, Gas	0.01405
302.42 K, 95 kPa, Gas	0.01379
302.43 K, 868 kPa, Liquid	0.06253
302.45 K, 5727 kPa, Liquid	0.06616
302.47 K, 10752 kPa, Liquid	0.06961
302.48 K, 635 kPa, Gas	0.01423
302.5 K, 16022 kPa, Liquid	0.07296
302.54 K, 20560 kPa, Liquid	0.07444
302.56 K, 199 kPa, Gas	0.01413
302.58 K, 865 kPa, Liquid	0.06226
302.58 K, 5727 kPa, Liquid	0.06624
302.59 K, 510 kPa, Gas	0.01416
302.6 K, 10751 kPa, Liquid	0.06953
302.62 K, 16020 kPa, Liquid	0.0724
302.66 K, 20555 kPa, Liquid	0.07461
302.74 K, 350 kPa, Gas	0.01409
302.78 K, 95 kPa, Gas	0.01418
302.82 K, 634 kPa, Gas	0.01428
302.93 K, 199 kPa, Gas	0.01415
302.94 K, 510 kPa, Gas	0.01416
302.96 K, 5727 kPa, Liquid	0.06618
302.96 K, 10747 kPa, Liquid	0.06954
302.97 K, 16018 kPa, Liquid	0.07247
302.98 K, 865 kPa, Liquid	0.0622
303.01 K, 20553 kPa, Liquid	0.07485
303.11 K, 350 kPa, Gas	0.01412
303.13 K, 5725 kPa, Liquid	0.06595
303.13 K, 10746 kPa, Liquid	0.06929
303.13 K, 16018 kPa, Liquid	0.0723
303.15 K, 20550 kPa, Liquid	0.07489
303.16 K, 864 kPa, Liquid	0.0621
303.17 K, 638 kPa, Gas	0.01429
303.31 K, 509 kPa, Gas	0.01414
303.33 K, 199 kPa, Gas	0.01417
303.5 K, 16015 kPa, Liquid	0.07239
303.51 K, 350 kPa, Gas	0.01407
303.51 K, 10746 kPa, Liquid	0.06924
303.51 K, 20552 kPa, Liquid	0.07485

Liquid
Settings	thermal conductivity [W/m/K]
273.15 K	0.07159
283.15 K	0.06833
293.15 K	0.06515
303.15 K	0.06204
